Where two headings read alike, the source gives them in different places. Some results are limits rather than exact numbers.

Results on 17 molecules are retold here after US20120101098A1, “3,28-DISUBSTITUTED BETULINIC ACID DERIVATIVES AS ANTI-HIV AGENTS” (priority 2009, published 2012).

Data set [1] deals with HIV-1IIIB. Put plainly: HIV-1IIIB replication inhibition assay in MT-2 lymphocytes (p24 antigen ELISA). The format is cell-based. Conditions: HIV-1IIIB infected MT-2 cell lines, concentration that inhibits HIV-1IIIB replication by 50%, NS: no suppression at concentrations below the CC50.
Description: (§1) HIV-1IIIB Replication Inhibition Assay in MT-2 Lymphocytes. The evaluation of HIV-1 inhibition was carried out as follows. […] Control wells containing virus and cells only (no drug) and cells only (no virus or drug) were also prepared. A second identical set of samples were added to cells under the same conditions without virus (mock infection) for cytotoxicity determinations (CC50 defined below). […] On day 4 PI, the assay was terminated and culture supernatants were harvested for p24 antigen ELISA analysis. The compound cytotoxicity was determined by XTT using the mock-infected sample wells.
Data set [2] deals with HIV-1NL4-3. Put plainly: HIV-1NL4-3 replication inhibition assay in MT-4 lymphocytes (p24 antigen ELISA). The format is cell-based. The text has this: HIV-1NL4-3 Replication Inhibition Assay in MT-4 Lymphocytes. A previously described HIV-1 infectivity assay was used.^28,33 A 96-well microtiter plate was used to set up the HIV-1NL4-3 replication screening assay. NL4-3 variants at a multiplicity of infection (MOI) of 0.01 were used to infect MT4 cells. Culture supernatants were collected on day 4 post-infection for the p24 antigen capture using an ELISA kit from ZeptoMetrix Corporation (Buffalo, N.Y.).

For data set [3], the system named is mock-infected MT-4 cell. Put plainly: Cytotoxicity in mock-infected MT-4 cells. Format: cell-based.
The test system of data set [4] is mock-infected MT-2 cell. The experiment in a line: Cytotoxicity in mock-infected MT-2 cells (XTT). As to conditions: concentration that inhibits mock-infected MT-2 cell growth by 50%.
Description: as §1
In data set [5] the test system is mock-infected MT-2 cell.
Description: as §1
The subject of data set [6] is HIV-1. The experiment in a line: Example 2 anti-HIV bioassay of C-28 ethylene glycol bevirimat analogs. The format is cell-based. Conditions: Example 2 compounds (Scheme B).
A short description of data set [7]: Protein binding affinity (stated in words, Example 2). Format: in vitro ADME. As to conditions: Example 2 compounds (Scheme B).
The nature of data set [8]: Solubility (stated in words).
Data set [9] in a line: Example 2 bioassay cytotoxicity (CC50). As to conditions: Example 2 compounds (Scheme B).
Data set [10] is described as follows: In vitro metabolic stability in pooled human liver microsomes. As to conditions: 3 μM, 0.2 mg/mL human liver microsome, NADPH.
The mark [11] stands for this setting: HIV-1NL4-3 infected MT-4 cell lines, concentration that inhibits HIV-1NL4-3 replication by 50%.
The mark [12] stands for this setting: Example 2 compounds (Scheme B), C-28 ethylene glycol side chains on bevirimat.
The mark [13] stands for this setting: Human immunodeficiency virus 1, MT2.

Turning to `C=C(C)[C@@H]1CC[C@]2(C(=O)N3CCC(CCCC(=O)NCCCN4CCOCC4)CC3)CC[C@]3(C)[C@H](CC[C@@H]4[C@@]5(C)CC[C@H](OC(=O)CC(C)(C)C(=O)O)C(C)(C)[C@@H]5CC[C@]43C)[C@@H]12` [Compound 48, N′-[N-[3β-O-(3′,3′-Dimethylsuccinyl)-lup-20(29)-en-28-oyl]-4-piperidine-butanoyl]-3-aminopropylmorpholine], the results for the EC50 in [1] and in [2] (setting [11]) were 0.006 µM and 0.031 µM, respectively. Further, the CC50 in [3] turned out to be 8.6 µM; in data set [4], 18.5 µM.

Regarding `C=C(COCCc1ccc(F)cc1)[C@@H]1CC[C@]2(C(=O)N[C@@H](CC(C)C)C(=O)O)CC[C@]3(C)[C@H](CC[C@@H]4[C@@]5(C)CC[C@H](O)C(C)(C)[C@@H]5CC[C@]43C)[C@H]12` [Compound 15, N-[3β-Hydroxy-30-(4% fluorophenethoxy)-lup-20(29)-en-28-oyl]-leucine], the EC50 in data set [1] is above 16.7 µM. This molecule displayed a CC50 in data set [5] of 24.4 µM.

Turning to `C=C(C)[C@@H]1CC[C@]2(C(=O)N3CCC(CCCC(=O)NC)CC3)CC[C@]3(C)[C@H](CC[C@@H]4[C@@]5(C)CC[C@H](OC(=O)CC(C)(C)C(=O)O)C(C)(C)[C@@H]5CC[C@]43C)[C@@H]12` [Compound 45], the EC50 in data set [1] is 0.067 µM; in data set [2] (setting [11]) it was 0.24 µM. The CC50 was above 10 µM in data set [3] and 33.3 µM in data set [4].

As for `C=C(COCCN1CCOCC1)[C@@H]1CC[C@]2(C(=O)NCCCCCCCC(=O)NC)CC[C@]3(C)[C@H](CC[C@@H]4[C@@]5(C)CC[C@H](O)C(C)(C)[C@@H]5CC[C@]43C)[C@@H]12` [Compound 21], the EC50 in data set [1] amounted to 0.09 µM; in data set [2] (setting [11]), 0.09 µM; in data set [6], 0.046 µM. Moreover, the CC50 in data set [3] (concentration that inhibits mock-infected MT-4 cell growth by 50%, read-out: CC50) is above 10 µM; in [9], 12 µM; in [4], 22.3 µM. Besides, in data set [7], the “protein binding affinity (in words)” value was “decreased protein binding affinity”. The “solubility (in words)” value is on record as “good solubility” in data set [8] (Example 1 compounds) and “increased solubility” in [8] (setting [12]).

On to `C=C(CBr)[C@@H]1CC[C@]2(C(=O)NCCCCCCCC(=O)O)CC[C@]3(C)[C@H](CC[C@@H]4[C@@]5(C)CC[C@H](O)C(C)(C)[C@@H]5CC[C@]43C)[C@@H]12` [Compound 25, N-[3β-Hydroxy-30-bromo-lup-20(29)-en-28-oyl]-8-aminooctanoic acid], for which the EC50 in data set [1] came out at 2.3 µM. For the same molecule, in data set [5], the CC50 amounted to 36.9 µM.

On to `C=C(C)[C@@H]1CC[C@]2(C(=O)N3CCC(CCCC(=O)O)CC3)CC[C@]3(C)[C@H](CC[C@@H]4[C@@]5(C)CC[C@H](O)C(C)(C)[C@@H]5CC[C@]43C)[C@@H]12` [Compound 38, N-[3β-Hydroxy-lup-20(29)-en-28-oyl]-4-piperidine butyric acid], for which the melting point lay within 145 to 146 °C. In data set [1] (setting [13]), the response was half-maximal at 21.7 µM (EC50). For the same molecule, in data set [4], the CC50 is 41 µM. In addition, the “Persentage of Remaining Parent Compounds (X ± SD) %” value in data set [10] (incubation time 0 min) came out at 100.0%. In addition, the “Persentage of Remaining Parent Compounds (X ± SD) %” value in data set [10] (incubation time 5 min) is on record as 101.7 ± 4.7%. In [10] (incubation time 15 min), the “Persentage of Remaining Parent Compounds (X ± SD) %” value was determined as 97.6 ± 6.2%. Besides, in [10] (incubation time 30 min), the “Persentage of Remaining Parent Compounds (X ± SD) %” value is listed as 81.4 ± 8.6%. Moreover, the “Persentage of Remaining Parent Compounds (X ± SD) %” value in data set [10] (incubation time 60 min) amounted to 62.7 ± 4.3%. Moreover, the “Persentage of Remaining Parent Compounds (X ± SD) %” value in [10] (incubation time 120 min) is on record as 53.8 ± 3.8%.

As to `C=C(C)[C@@H]1CC[C@]2(C(=O)N3CCC(CCCC(=O)N4CCOCC4)CC3)CC[C@]3(C)[C@H](CC[C@@H]4[C@@]5(C)CC[C@H](OC(=O)CC(C)(C)C(=O)O)C(C)(C)[C@@H]5CC[C@]43C)[C@@H]12` [Compound 46, N′-[N-[3β-O-(3′,3′-Dimethylsuccinyl)-lup-20(29)-en-28-oyl]-4-piperidine-butanoyl]-morpholine], the EC50 in [1] is 0.011 µM; in [2] (setting [11]), 0.07 µM. Moreover, the CC50 was 8.8 µM in [3] and 19.2 µM in data set [4].

The molecule `C=C(COCCc1ccc(OC)cc1)[C@@H]1CC[C@]2(C(=O)N[C@@H](CC(C)C)C(=O)O)CC[C@]3(C)[C@H](CC[C@@H]4[C@@]5(C)CC[C@H](O)C(C)(C)[C@@H]5CC[C@]43C)[C@@H]12` [Compound 14, N-[3β-Hydroxy-30-(4′-methoxyphenethoxy)-lup-20(29)-en-28-oyl]-leucine] displayed an EC50 in data set [1] above 16.7 µM. Moreover, the CC50 in data set [5] amounted to 16.7 µM.

Take `C=C(COCCN1CCOCC1)[C@@H]1CC[C@]2(C(=O)N[C@@H](CC(C)C)C(=O)O)CC[C@]3(C)[C@H](CC[C@@H]4[C@@]5(C)CC[C@H](O)C(C)(C)[C@@H]5CC[C@]43C)[C@@H]12` [Compound 19, N-[3β-Hydroxy-30-(2′-morpholinoethoxy)-lup-20(29)-en-28-oyl]-leucine]: the EC50 in [1] amounted to 26.6 µM. Besides, the CC50 in data set [5] was determined as 35.8 µM.

As to `C=C(COCCc1ccc(Cl)cc1)[C@@H]1CC[C@]2(C(=O)N[C@@H](CC(C)C)C(=O)O)CC[C@]3(C)[C@H](CC[C@@H]4[C@@]5(C)CC[C@H](O)C(C)(C)[C@@H]5CC[C@]43C)[C@@H]12` [Compound 17, N-[3β-Hydroxy-30-(4′-chlorophenethoxy)-lup-20(29)-en-28-oyl]-leucine], the EC50 in data set [1] came to 27.8 µM. Besides, the CC50 in data set [5] is 34.6 µM.

Take `C=C(COCCN1CCOCC1)[C@@H]1CC[C@]2(C(=O)NCCCCCCCC(=O)O)CC[C@]3(C)[C@H](CC[C@@H]4[C@@]5(C)CC[C@H](O)C(C)(C)[C@@H]5CC[C@]43C)[C@@H]12` [Compound 20, N-[3β-Hydroxy-30-(2′-morpholinoethoxy)-lup-20(29)-en-28-oyl]-8-aminooctanoic acid]: the EC50 worked out at 1.8 µM in data set [1] and 0.17 µM in data set [6]. Besides, the “protein binding affinity (in words)” value in data set [7] was “decreased protein binding affinity”. Moreover, the “solubility (in words)” value in [8] (Example 1 compounds) is “increase in the derivative's solubility”; in [8] (setting [12]) it was “increased solubility”. For the same molecule, the CC50 in data set [9] came out at 12.4 µM; in data set [4], 24.8 µM.

Consider `C=C(C)[C@@H]1CC[C@]2(C(=O)NCCCCCCCNC(C)=O)CC[C@]3(C)[C@H](CC[C@@H]4[C@@]5(C)CC[C@H](O)C(C)(C)[C@@H]5CC[C@]43C)[C@@H]12` [Compound 4, A43-D, reference compound], for which the EC50 is 0.092 µM in data set [2] (setting [11]) and 0.1 µM in data set [2] (value of prior best entry inhibitor 4 as given in text, unit inferred). The molecule further showed a CC50 in [3] above 10 µM.

Turning to `C=C(CO)[C@@H]1CC[C@]2(C(=O)NCCCCCCCC(=O)O)CC[C@]3(C)[C@H](CC[C@@H]4[C@@]5(C)CC[C@H](O)C(C)(C)[C@@H]5CC[C@]43C)[C@@H]12` [Compound 29, N-[3β,30-Dihydroxy-lup-20(29)-en-28-oyl]-8-aminooctanoic acid], in data set [1], the EC50 came to 14.8 µM. This molecule came in with a CC50 in data set [5] of 40.7 µM.

As to `C=C(C)[C@@H]1CC[C@]2(C(=O)N3CCC(CCCC(=O)NCCN4CCOCC4)CC3)CC[C@]3(C)[C@H](CC[C@@H]4[C@@]5(C)CC[C@H](OC(=O)CC(C)(C)C(=O)O)C(C)(C)[C@@H]5CC[C@]43C)[C@@H]12` [Compound 47, N′-[N-[3β-O-(3′,3′-Dimethylsuccinyl)-lup-20(29)-en-28-oyl]-4-piperidine-butanoyl]-2-aminoethylmorpholine], the figures for the EC50 in [1] and in data set [2] (setting [11]) were 0.007 µM and 0.035 µM, respectively. Besides, the results for the 50% cytotoxic concentration (CC50) in [3] and in [4] were 8.5 µM and 17.3 µM, respectively.

In data set [2] (setting [11]), `C=C(C)[C@@H]1CC[C@]2(C(=O)NCCCCCCCC(=O)N[C@@H](CC(C)C)[C@H](O)CC(=O)O)CC[C@]3(C)[C@H](CC[C@@H]4[C@@]5(C)CC[C@H](O)C(C)(C)[C@@H]5CC[C@]43C)[C@@H]12` [Compound 3b, IC9564, reference compound] displayed an EC50 of 0.089 µM. This molecule yielded a CC50 in data set [3] above 10 µM.

Molecule `C=C(COCCc1ccc(Br)cc1)[C@@H]1CC[C@]2(C(=O)N[C@@H](CC(C)C)C(=O)O)CC[C@]3(C)[C@H](CC[C@@H]4[C@@]5(C)CC[C@H](O)C(C)(C)[C@@H]5CC[C@]43C)[C@@H]12` [Compound 16, N-[3β-Hydroxy-30-(4′-bromophenethoxy)-lup-20(29)-en-28-oyl]-leucine] had an EC50 in data set [1] above 16.7 µM. In data set [5], the 50% cytotoxic concentration (CC50) came out at 20.8 µM.

As for `C=C(C)[C@@H]1CC[C@]2(C(=O)N[C@@H](CC(C)C)C(=O)O)CC[C@]3(C)[C@H](CC[C@@H]4[C@@]5(C)CC[C@H](NC(=O)CC(C)(C)C(=O)O)C(C)(C)[C@@H]5CC[C@]43C)[C@@H]12` [Compound 36, N′-[3β-(3′,3′-Dimethylsuccinyl)-lup-20(29)-en-28-oyl]-leucine], the melting point was in the range of 248 to 250 °C. In addition, in [1] (setting [13]), the EC50 amounted to 13.2 µM. Further, in [4], the CC50 worked out at 35.9 µM.
